The results in this text go back to PMC8302598, “Rapid discovery of self-assembling peptides with one-bead one-compound peptide library” (Nature Communications, 2021).

A short description of data set [1]: Turbidity test (transmittance spectra). Particulars: 20 μM peptide in water. Format: physicochemical. The protocol:
To further confirm the peptide assembling in water, the solutions of pentapeptide were diluted to 20 μM for turbidity test.

Data set [2] can be described thus: Appearance and TEM of 30 mM peptide in water. Format: physicochemical. The settings on record: for Nanostructure under TEM: 30 mM in H2O; for Appearance of peptide in water: 30 mM in water, sonicated 3 min. The protocol: To further characterize these self-assembling peptides, we selected two positive peptides (FFVDF and YFTEF) and a negative control peptide (PFTTR) for the following studies: Fourier transform infrared (FT-IR) spectroscopy, UV−Vis spectra, and transmission electron microscopy (TEM).
Pentapeptides monomers were dissolved in DMSO at a concentration of 5.0 mM, followed by quick injection into water at a volume ratio of 1:99 for DMSO and H2O to obtain the nanomaterials solution (50 μM). For 30 mM pentapeptide solution, the pentapeptide was dissolved in water and sonicated for 3 min.
The pentapeptide solution with the concentration of 20 μM (10 μL) was placed dropwise onto a copper mesh for 5 min, then most of the liquid was removed through a filter paper. Ten microliters of uranyl acetate solution were employed to stain the samples for 5 min, followed by drying the spare liquid with the filter. Finally, the copper mesh was washed with 10 μL of deionized water, which was blotted after staining and drying at room temperature. All of the samples were observed by TEM (Tecnai G2 20 S-TWIN) at an accelerating voltage of 200 kV.

The subject of data set [3] is HeLa cells. Kind of data set: Time-dependent co-localization of FITC-labeled peptides with lysosomes (CLSM). Format: cell-based. Particulars: 50 μM; for Pearson correlation coefficient, peptide vs lysosomes, 2 h: peptide for 2 h; for Pearson correlation coefficient, peptide vs lysosomes, 4 h: peptide for 2 h and DMEM for 2 h; for Pearson correlation coefficient, peptide vs lysosomes, 8 h: peptide for 2 h and DMEM for 6 h. The protocol: Supplementary Figure 24. a) Time-dependent (2, 4, 8 h) CLSM images for monitoring and quantitatively analyzing uptake of fluorescent peptide assemblies (YFTEF, ISDNL, and FGFDP at 50 μM) by HeLa cells. The scale bar is 10 μm. b) Corresponding colocalization analysis of images from ‘a’. […]
Regarding the entrance of nanoparticles into HeLa cells, we have carried out additional experiments to address reviewer’s concern. To track the biodistribution of these peptides in the cytosol, peptides YFTEF, ISDNL and FGFDP were labeled by addition of FITC-labeled peptides (FITC-YFTEF, FITC-ISDNL, FITC-FGFDP) at 3% level, respectively, prior to self-assembly, and then incubated with HeLa cells for 2 h. The incubated cells were then washed with PBS three times and further incubated with Dulbecco's modified eagle medium without peptide for another 2 and 6 h. The lysosomes of the cells were stained with red fluorescence after 2 (peptide for 2 h), 4 (peptide for 2 h and DMEM for 2 h), or 8 h (peptide for 2 h and DMEM for 6 h) incubation, followed by CLSM observation.
For ISDNL, good co-localization (Pearson correlation coefficient: 0.92) between peptides and lysosomes […]
lysosomes (colocalization from 0.92 at 2 h, to 0.76 at 4 h and 0.69 at 8 h).
ISDNL based nanoparticles could escape from lysosomes over time.
For YFTEF, good co-localization (yellow fluorescence) between YFTEF (green fluorescence) and with […]
The co-localization efficiency for YFTEF and lysosomes remained high over time (4 h, 0.93; 8 h, 0.91).
For FGFDP, the Pearson correlation coefficient of lysosome was determined to be about 0.7 for 2 (0.74), 4 (0.79), 8 h (0.72). It seems that FGFDP might have escaped from lysosomes prior to the 2 h time point.
In order to confirm this hypothesis, we did the co-localization study at earlier time points: 30 min to 1 h.
The results reveal that FGFDP increased the distribution in the lysosome from 30 min (Pearson correlation coefficient: 0.59) to 1 h (Pearson correlation coefficient: 0.94), and then decreased to 0.74 at 2h. These […]
escape from lysosomes sometime between 1-2 h.

The mark [4] stands for this setting: FITC-labeled peptide/Lyso-Tracker co-localization.

“And” between values parts separate entries of the source, which are not always exact repeats. Equal values may be shown once. “Also recorded” adds a separate entry of the source.

Turning to “FFVDF [self-assembling pentapeptide identified from OBOC library, forms nanofibers]”, the “Transmittance at 400 nm” value in data set [1] stood at 88%. In addition, in data set [2], the “Nanostructure under TEM” value is recorded as “entangled fibrous network” and the “Appearance of peptide in water” value is listed as “milky white solution”.
On to “FGFDP [self-assembling pentapeptide identified from OBOC library]”, for which the “Pearson correlation coefficient, peptide vs lysosomes, 30 min” value in data set [3] (3% FITC-labeled peptide, 30 min) is given as 0.59. In data set [3] (3% FITC-labeled peptide, 1 h), the “Pearson correlation coefficient, peptide vs lysosomes, 1 h” value worked out at 0.94. Also, the “Pearson correlation coefficient, peptide vs lysosomes, 2 h” value in data set [3] (3% FITC-labeled peptide) amounted to 0.74. Also, in data set [3] (setting [4]), the “Time of escape from lysosomes” value was 1 to 2 h and ~1.5 h. For the same substance, in data set [3], the “Pearson correlation coefficient, peptide vs lysosomes, 4 h” value is listed as 0.79 and the “Pearson correlation coefficient, peptide vs lysosomes, 8 h” value was 0.72.
Consider “ISDNL [self-assembling pentapeptide identified from OBOC library]”, for which, in data set [3] (3% FITC-labeled peptide), the “Pearson correlation coefficient, peptide vs lysosomes, 2 h” value was 0.92. Further, in data set [3], the “Pearson correlation coefficient, peptide vs lysosomes, 4 h” value amounted to 0.76 and the “Pearson correlation coefficient, peptide vs lysosomes, 8 h” value was 0.69.
Take “YFTEF [self-assembling pentapeptide identified from OBOC library]”: the “Transmittance at 400 nm” value in data set [1] came to 98%. For the same substance, in data set [2], the “Nanostructure under TEM” value is reported as “entangled fibrous network” and the “Appearance of peptide in water” value is “milky hydrogel”. Also, in data set [3] (3% FITC-labeled peptide), the “Pearson correlation coefficient, peptide vs lysosomes, 2 h” value was determined as 0.92. In addition, the Retention in lysosomes result in data set [3] (setting [4]) is listed as “remained in lysosomes at 8 h; also recorded: remained in lysosomes for 8 h without obvious escape”. Moreover, in data set [3], the “Pearson correlation coefficient, peptide vs lysosomes, 4 h” value is recorded as 0.93 and the “Pearson correlation coefficient, peptide vs lysosomes, 8 h” value is on record as 0.91.
